From patent publication US8883963B2 (Cadila Healthcare Limited, priority 2007, dated 2014)

Legend:
[1] = molecular target: T1, Human GLP-1 receptor (Homo sapiens, UniProt P43220); test: In vitro Human GLP-1 R agonist activity (cyclic AMP determination) in CHO/human GLP1R cells; format: cell-based
T1 construct: The full-length cDNA was cloned in pcDNA3.1(+); expressed in transfected cells

[2] = Stability in simulated intestinal fluid; format: in vitro ADME; conditions: 2 μM peptidomimetic, simulated intestinal fluid pH 7.5, 37° C.; for half-life at 2 μM: read-out: half-life (t1/2) when incubated with simulated intestinal fluid
Experimental: (§1) Reactions were terminated by the addition of TFA/H2O (15 mL, 10% (v/v)). […] The column was equilibrated with TFA/H20, at a flow rate of 1 mL/min.

[3] = Stability in human plasma; format: in vitro ADME; conditions: 2 μM peptidomimetic, pooled human plasma, 37° C.; for half-life at 2 μM: pH 7.8, read-out: half-life (t1/2) when incubated with human plasma
Experimental: as §1

[4] = tested on: RIN5F (Rat Insulinoma) cells; test: In vitro glucose-dependent insulin secretion (RIN5F cell assay screening protocol); format: cell-based; conditions: 16.7 mM glucose load
[5] = Stability in liver microsomes; format: in vitro ADME; conditions: 2 μM peptidomimetic, human liver microsomes, 37° C.; for half-life at 2 μM: pH 7.8, read-out: half-life (t1/2) when incubated with liver microsomes
Experimental: as §1

[6] = molecular target: T2, human glucagon receptor (Homo sapiens, UniProt P47871); test: In vitro human glucagon antagonist activity (inhibition of cAMP production) in CHO/human glucagon R cells; format: cell-based; conditions: with saturated concentration of glucagon peptide
T2 construct: The full-length cDNA was cloned in pcDNA3.1 (Invitrogen); expressed in transfected cells

[7] = Stability in simulated gastric fluid; format: in vitro ADME; conditions: 2 μM peptidomimetic, simulated gastric fluid pH 1.5, 37° C.; for half-life at 2 μM: read-out: half-life (t1/2) when incubated with simulated gastric fluid
Experimental: as §1

[8] = molecular target: DPP IV (Homo sapiens, UniProt P27487); test: Stability against DPP IV enzyme; format: in vitro ADME; conditions: 37° C.; for % degradation of peptidomimetics in 24 h when incubated with DPP-IV enzyme: 2 μM peptidomimetic; for half-life at 2 μM: DPP IV enzyme, pH 7.8, 2 μM peptidomimetic, read-out: half-life (t1/2) when incubated with DPP-IV enzyme
Experimental: as §1

DPP IV, sequence (P27487 whole entry, species assumed): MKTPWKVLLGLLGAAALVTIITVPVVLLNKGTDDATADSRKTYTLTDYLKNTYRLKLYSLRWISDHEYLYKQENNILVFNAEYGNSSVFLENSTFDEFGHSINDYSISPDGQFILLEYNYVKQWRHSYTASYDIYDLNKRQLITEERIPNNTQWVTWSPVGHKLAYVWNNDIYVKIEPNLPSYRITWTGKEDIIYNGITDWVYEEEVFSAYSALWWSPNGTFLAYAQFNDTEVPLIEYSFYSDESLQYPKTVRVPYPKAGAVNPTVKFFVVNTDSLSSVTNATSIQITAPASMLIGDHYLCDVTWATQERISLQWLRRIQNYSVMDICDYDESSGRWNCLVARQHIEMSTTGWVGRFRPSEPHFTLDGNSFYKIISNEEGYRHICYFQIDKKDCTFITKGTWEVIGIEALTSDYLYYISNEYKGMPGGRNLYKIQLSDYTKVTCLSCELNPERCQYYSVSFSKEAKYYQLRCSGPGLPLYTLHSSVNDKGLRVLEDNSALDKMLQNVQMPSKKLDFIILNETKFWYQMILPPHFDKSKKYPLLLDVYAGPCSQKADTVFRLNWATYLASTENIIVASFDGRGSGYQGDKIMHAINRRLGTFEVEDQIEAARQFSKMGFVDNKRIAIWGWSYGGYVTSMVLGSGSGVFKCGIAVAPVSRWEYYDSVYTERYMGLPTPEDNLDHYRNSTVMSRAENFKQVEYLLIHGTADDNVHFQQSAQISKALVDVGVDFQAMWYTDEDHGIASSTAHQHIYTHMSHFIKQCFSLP
T2 sequence (P47871 26-477): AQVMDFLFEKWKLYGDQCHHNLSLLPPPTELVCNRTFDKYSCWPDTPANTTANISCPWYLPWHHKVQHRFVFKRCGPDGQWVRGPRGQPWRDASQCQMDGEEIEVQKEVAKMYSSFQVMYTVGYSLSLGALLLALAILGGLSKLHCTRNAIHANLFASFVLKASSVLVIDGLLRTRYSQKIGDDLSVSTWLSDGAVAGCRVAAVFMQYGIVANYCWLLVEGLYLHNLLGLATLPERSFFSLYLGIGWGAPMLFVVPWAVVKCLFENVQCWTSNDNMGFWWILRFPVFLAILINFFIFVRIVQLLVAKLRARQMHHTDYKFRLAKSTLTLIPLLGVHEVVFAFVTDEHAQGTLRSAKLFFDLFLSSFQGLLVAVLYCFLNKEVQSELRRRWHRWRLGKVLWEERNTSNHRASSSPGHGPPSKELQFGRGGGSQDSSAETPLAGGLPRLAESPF
T1 sequence (P43220 24-463): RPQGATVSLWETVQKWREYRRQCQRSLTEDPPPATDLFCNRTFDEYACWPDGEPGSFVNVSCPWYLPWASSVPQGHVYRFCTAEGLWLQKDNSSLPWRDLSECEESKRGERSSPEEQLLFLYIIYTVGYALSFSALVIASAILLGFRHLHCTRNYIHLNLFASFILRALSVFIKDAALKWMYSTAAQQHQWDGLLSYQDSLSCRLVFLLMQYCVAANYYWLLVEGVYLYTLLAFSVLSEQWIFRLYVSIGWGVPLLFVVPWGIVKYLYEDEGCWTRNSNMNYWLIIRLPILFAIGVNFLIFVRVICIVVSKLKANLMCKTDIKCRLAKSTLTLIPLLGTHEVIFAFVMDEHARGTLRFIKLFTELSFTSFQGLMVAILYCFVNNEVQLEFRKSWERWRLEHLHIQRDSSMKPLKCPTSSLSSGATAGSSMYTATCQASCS

| Structure (SMILES) | Human GLP-1 R activity (cAMP release), % activity with respect to control ([1]; 1 nM test compound) [%] | Human GLP-1 R activity (cAMP release), % activity with respect to control ([1]; 10 nM test compound) [%] | Human GLP-1 R activity (cAMP release), % activity with respect to control ([1]; 100 nM test compound) [%] | Human GLP-1 R activity (cAMP release), % activity with respect to control ([1]; 1 μM test compound) [%] | Human GLP-1 R activity (cAMP release), % activity with respect to control ([1]; 10 μM test compound) [%] | % degradation of peptidomimetics in 24 h when incubated with simulated intestinal fluid [2] | half-life at 2 μM [2] [h] | % degradation of peptidomimetics in 24 h when incubated with human plasma [3] [%] | half-life at 2 μM [3] [h] | Insulin secretion ([4]; 0.1 nM test compd.) [pg/µg/h] | Insulin secretion ([4]; 1 nM test compd.) [pg/µg/h] | Insulin secretion ([4]; 10 nM test compd.) [pg/µg/h] | % degradation of peptidomimetics in 24 h when incubated with liver microsomes [5] [%] | % degradation of peptidomimetics in 24 h when incubated with simulated gastric fluid [7] [%] | half-life at 2 μM [7] [h] | % degradation of peptidomimetics in 24 h when incubated with DPP-IV enzyme [8] [%] | half-life at 2 μM [8] [h] | half-life (t1/2) when incubated with human plasma [3] | half-life at 2 μM [5] [h] | further results |
| --- | --- | --- | --- | --- | --- | --- | --- | --- | --- | --- | --- | --- | --- | --- | --- | --- | --- | --- | --- | --- |
| CCc1cc(OC)ccc1-c1ccc(CC(NC(=O)[C@H](CC(=O)O)NC(=O)[C@H](CO)NC(=O)[C@@H](NC(=O)[C@H](Cc2ccccc2)NC(=O)[C@@H](NC(=O)CNC(=O)C(CCC#N)NC(=O)C(C)(C)NC(=O)[C@@H](N)Cc2c[nH]cn2)[C@@H](C)O)[C@@H](C)O)C(=O)NC(CCCc2ccccc2)C(N)=O)cc1 (single isomer, unassigned) [compound 29] | 96 ± 0.09 | 99 ± 0.07 | 99 ± 0.04 | 99 ± 0.01 | 99 ± 0.08 | 00% | > 24 | 00 | > 24 | 16.3 ± 0.15 | 22.4 ± 0.21 | 36.2 ± 0.11 | 32 | 00 | > 24 | 00 | > 24 | – | – | half-life (t1/2) when incubated with liver microsomes [5]: (5) h; Human Glucagon receptor antagonistic activity shown as inhibition of cAMP production of Glucagon peptide ([6]; 1 nM test compound): 20 ± 0.06 pmol/ml/μg prt; Human Glucagon receptor antagonistic activity shown as inhibition of cAMP production of Glucagon peptide ([6]; 10 nM test compound): 18 ± 0.09 pmol/ml/μg prt; Human Glucagon receptor antagonistic activity shown as inhibition of cAMP production of Glucagon peptide ([6]; 100 nM test compound): 16 ± 0.01 pmol/ml/μg prt; Human Glucagon receptor antagonistic activity shown as inhibition of cAMP production of Glucagon peptide ([6]; 1 μM test compound): 14 ± 0.03 pmol/ml/μg prt; Human Glucagon receptor antagonistic activity shown as inhibition of cAMP production of Glucagon peptide ([6]; 10 μM test compound): 12 ± 0.01 pmol/ml/μg prt |
| CCc1cc(OC)ccc1-c1ccc(CC(NC(=O)[C@H](CC(=O)O)NC(=O)[C@H](CO)NC(=O)[C@@H](NC(=O)[C@H](Cc2ccccc2)NC(=O)[C@@H](NC(=O)CNC(=O)C(CCC#N)NC(=O)C(C)(C)NC(=O)[C@@H](N)Cc2c[nH]cn2)[C@@H](C)O)[C@@H](C)O)C(=O)NC(CCCc2ccc(F)cc2C(F)(F)F)C(N)=O)cc1 (single isomer, unassigned) [compound 80] | 66 ± 0.022 | 97 ± 0.46 | 99 ± 0.41 | 99 ± 0.66 | 99 ± 0.03 | 100% | 0.5 | 70 | – | 16.2 ± 0.13 | 22.4 ± 0.19 | 36.2 ± 0.09 | 100 | 100 | 0.5 | 72 | – | (9) h | 0.5 | – |
| CCc1cc(OC)ccc1-c1ccc(CC(NC(=O)[C@H](CC(=O)O)NC(=O)[C@H](CO)NC(=O)[C@@H](NC(=O)[C@H](Cc2ccccc2)NC(=O)[C@@H](NC(=O)CNC(=O)C(CCC#N)NC(=O)C(C)(C)NC(=O)[C@@H](N)Cc2c[nH]cn2)[C@@H](C)O)[C@@H](C)O)C(=O)NC(CCCc2ccc(C(F)(F)F)cc2F)C(N)=O)cc1 (single isomer, unassigned) [compound 81] | 69 ± 0.09 | 98 ± 0.07 | 99 ± 0.04 | 99 ± 0.01 | 99 ± 0.08 | 00% | > 24 | 00 | > 24 | 17.1 ± 0.15 | 23.1 ± 0.12 | 37.0 ± 0.19 | 86 | 50 | 4 | 00 | > 24 | – | 2 | – |
| CCc1cc(OC)ccc1-c1ccc(CC(NC(=O)[C@H](CC(=O)O)NC(=O)[C@H](CO)NC(=O)[C@@H](NC(=O)[C@H](Cc2ccccc2)NC(=O)[C@@H](NC(=O)CNC(=O)C(CCC#N)NC(=O)C(C)(C)NC(=O)[C@@H](N)Cc2c[nH]cn2)[C@@H](C)O)[C@@H](C)O)C(=O)NC(CCCc2ccccc2Cl)C(N)=O)cc1 (single isomer, unassigned) [compound 82] | 78 ± 0.12 | 99 ± 0.15 | 99 ± 0.18 | 99 ± 0.03 | 99 ± 0.09 | 00% | > 24 | 00 | > 24 | 16.9 ± 0.22 | 22.8 ± 0.31 | 36.7 ± 0.34 | 84 | 55 | 4 | 00 | > 24 | – | 2 | – |
| CCc1cc(OC)ccc1-c1ccc(CC(NC(=O)[C@H](CC(=O)O)NC(=O)[C@H](CO)NC(=O)[C@@H](NC(=O)C(C)(Cc2ccccc2F)NC(=O)[C@@H](NC(=O)CNC(=O)[C@H](CC(C(F)(F)F)C(F)(F)F)NC(=O)C(C)(C)NC(=O)[C@H](Cc2c[nH]cn2)NC(C)=O)[C@@H](C)O)[C@@H](C)O)C(=O)NC(CCCc2ccccc2)C(N)=O)cc1 (single isomer, unassigned) [compound 210] | 46 ± 0.022 | 85 ± 0.46 | 90 ± 0.41 | 99 ± 0.66 | 99 ± 0.03 | 100% | 0.5 | 77 | – | 11.9 ± 0.17 | 14.2 ± 0.13 | 27.6 ± 0.16 | 100 | 100 | 0.5 | 75 | – | (9) h | 0.5 | – |
| CCc1cc(OC)ccc1-c1ccc(CC(NC(=O)[C@H](CC(=O)O)NC(=O)[C@H](CO)NC(=O)[C@@H](NC(=O)C(C)(Cc2ccccc2)NC(=O)[C@@H](NC(=O)CNC(=O)[C@H](CC(C(F)(F)F)C(F)(F)F)NC(=O)C(C)(C)NC(=O)[C@@H](N)Cc2c[nH]cn2)[C@@H](C)O)[C@@H](C)O)C(=O)NC(CCCc2ccccc2)C(N)=O)cc1 (single isomer, unassigned) [compound 230] | 99 ± 0.12 | 99 ± 0.08 | 99 ± 0.11 | 99 ± 0.12 | 99 ± 0.16 | 100 ) % | 0.5 | 70 | – | 12.1 ± 0.51 | 14.1 ± 0.19 | 28.1 ± 0.29 | 100 | 100 | 0.5 | 86 | – | (9) h | 0.5 | – |
